Drawing on patent US6476079B1, “Devices for the delivery of drugs having antiprogestinic properties” (priority 1999, dated 2002), this text covers Relative permeation for 6 compounds.

The series can be described thus: Permeation test of antiprogestins through elastomer membranes (two-compartment diffusion cell). It is filed as physicochemical. Conditions: 37° C. As for the experimental part:
The assay apparatus described in the publication Yie W. Chien, Transdermal Controlled Systemic Medications, Marcel Dekker Inc., New York and Basel 1987, page 173, was used in the tests.
The drug fluxes (permeations) through membranes were measured with a two-compartment diffusion cell at 37° C. (Side-Bi-Side™ diffusion cell, Crown Glass Company). The apparatus consisted of two concentric cells (donor and receptor compartments) that were separated by the elastomer membrane to be investigated. […] A drug solution and solvent (without drug) was added into the donor and the receptor compartments. At each predetermined time interval, samples were withdrawn from the receptor compartment and replaced with the same volume of solvent. The amount of the drug that permeated through the membrane was measured by HPLC. In all measurements, the thickness (0.4 mm) of the membrane and the surface area of the membranes were constant.
In the tests described below, the permeation rates of two different drugs through a 0.4-mm-thick elastomer membrane were measured by using the assay apparatus described above. The tables below show the effect of the concentration of PEO groups (% by weight of the said compositions) on the permeation rates of the different drugs for elastomers prepared from different composition types. The tables show the relative permeation as compared with a commercial crosslinked dimethyl siloxane-vinyl methyl siloxane elastomer (Mn approximately 400,000 g/mol) containing a silica filler.

Setting [1] is: composition type A, PEO concentration 4.7 % by weight, 0.4 mm membrane, relative to reference elastomer.
The mark [2] stands for this setting: reference membrane: commercial crosslinked dimethyl siloxane-vinyl methyl siloxane elastomer with silica filler, PEO 0 % by weight, 0.4 mm.
The mark [3] stands for this setting: composition type B, PEO concentration 7.5 % by weight, 0.4 mm membrane, relative to reference elastomer.
Setting [4] is: composition type B, PEO concentration 9.8 % by weight, 0.4 mm membrane, relative to reference elastomer.
[5] abbreviates: composition type A, PEO concentration 5.1 % by weight, 0.4 mm membrane, relative to reference elastomer.
[6] abbreviates: composition type B, PEO concentration 3.1 % by weight, 0.4 mm membrane, relative to reference elastomer.
Setting [7] is: composition type B, PEO concentration 4.1 % by weight, 0.4 mm membrane, relative to reference elastomer.
Setting [8] is: composition type B, PEO concentration 5.0 % by weight, 0.4 mm membrane, relative to reference elastomer.

On to “(Z)-6′-(4-Cyanophenyl)-17-β-hydroxy-17-α-(3-isovaleryloxy-1-propenyl))-9,11-α-diydro-4′H-naphth [3′,2′,1′:10,9,11]estr-4-en-3-one [Compound 6]”, for which the Relative permeation runs as follows: under setting [1], 2.9; (composition type A, PEO concentration 5.3 % by weight, 0.4 mm membrane, relative to reference elastomer) 5.9; under setting [2], 1.

With `CC(=O)c1ccc([C@H]2C[C@@]3(C)[C@@H](CC[C@@]3(O)C(F)(F)C(F)(F)F)[C@@H]3CCC4=CC(=O)CCC4=C32)cc1` [Compound 4, 11β-(4-Acetylphenyl)-17β-hydroxy-17α-(1,1,2,2,2-pentafluoroethyl)estra-4,9-dien-3-one], the Relative permeation is, setting by setting: under setting [3], 16.4; under setting [4], 27.6; under setting [2], 1.

Regarding `CCNC(=O)ON=Cc1ccc(C2CC3(C)C(CCC3(COC)OC)C3CCC4=CC(=O)CCC4=C23)cc1` (stereo not drawn) [Compound 2, 4-[17β-Methoxy-17α-(methoxymethyl)-3-oxoestra-4,9-dien-11β-yl]benzaldehyde-1-[O-(ethylamino)carbonyl]oxime], the Relative permeation reads like this: under setting [1], 4.1; under setting [5], 7.6; under setting [6], 3.7; under setting [7], 4.1; under setting [8], 5.8; under setting [3], 11.5. The Relative permeation reads like this: under setting [4], 17.3; under setting [2], 1.

`COC[C@]1(OC)CC[C@H]2[C@@H]3CCC4=CC(=O)CCC4=C3[C@@H](c3ccc(/C=N/O)cc3)C[C@@]21C` [Compound 1, 4-[17β-methoxy-17α-(methoxymethyl)-3-oxoestra-4,9-dien-11β-yl]benzaldehyde-1-(E)-oxime]: the Relative permeation is 3.5 under setting [1], 5.3 under setting [5] and 1 under setting [2].

With `CCSC(=O)O/N=C/c1ccc([C@H]2C[C@@]3(C)[C@@H](CC[C@@]3(COC)OC)[C@@H]3CCC4=CC(=O)CCC4=C32)cc1` [Compound 3], the Relative permeation came out at 2.1 (composition type B, PEO concentration 1.4 % by weight, 0.4 mm membrane, relative to reference elastomer); 6.4 under setting [4]; 1 under setting [2].

Consider `CN(C)c1ccc([C@H]2C[C@@]3(C)[C@@H](CC[C@@]3(O)/C=C\CO)[C@@H]3CCC4=CC(=O)CC[C@@H]4[C@H]32)cc1` [Compound 5, Estr-4-en-3-one, 11-[4-(dimethylamino)phenyl]-17-hydroxy-17-(3-hydroxy-1-propenyl)-,[11.beta,17β,17(Z)]-(9CI)], for which the Relative permeation was determined as 4.1 under setting [1]; 6.0 under setting [6]; 6.7 under setting [7]; 10.7 under setting [8]; 18.7 under setting [3]; 37.2 under setting [4]. Further, the Relative permeation under setting [2] turned out to be 1.
